# Data published in publication PMC6273913, “New α-Methylene-γ-Butyrolactone Derivatives as Potential Fungicidal Agents: Design, Synthesis and Antifungal Activities” (Molecules, 2016).
# Where two headings read alike, the source gives them in different places.
# Columns and labels:
# [1] = system: C. lagenarium; test: Spore germination assay, fungicidal activity against C. lagenarium; assay type: cell-based, Colletotrichum lagenarium
# Experimental: (§1) The fungal pathogens C. lagenarium and B. cinerea was provided by the Agricultural Culture Collection of China (Yangling, Shaanxi, China). C. lagenarium was cultured for 2 weeks at 25 ± 1 °C on potato dextrose agar (PDA) while B. cinerea was cultured at 20 °C on the same medium after being retrieved from the storage tube. Plates were flooded with sterile distilled water, and then conidia were scraped with a glass rod. Mycelial debris was removed by filtration. The spores were harvested and suspended in sterile distilled water containing 0.1% (v/v) Tween 20. The concentration of the spore suspension was adjusted to 1.0 × 10^6 spores/mL with sterilized distilled water following.
# (§2) The tested samples (10.0 mg) dissolved in acetone (0.1 mL) were diluted with sterile distilled water to prepare 10.0 mL stock solution, which was further diluted to prepare test solutions in which the final concentration of acetone was <1% (v/v). A series of concentrations of tested samples and one control (1% acetone with sterile distilled water) were separately tested for spore germination of C. lagenarium or B. cinerea. The samples were inoculated with spore suspension of C. lagenarium or B. cinerea containing 1.0 × 10^6 spores/mL. Aliquots of 10 μL of prepared spore suspension were placed on separate glass slides in triplicate. Slides containing the spores were incubated in a moisture chamber at 25 °C for 6~8 h. Each slide was then observed under the microscope for spore germination. Spores were considered to have germinated if the length of the germ tube was at least half the length of the spore. Afterward, spore germination was stopped by applying a drop of lactophenol-cotton blue to the inoculation sites on plates. The numbers of generated spores were counted under a microscope (Olympus BX61, Tokyo, Japan), and the percentage of germinated spores was calculated. Chlorothalonil was used as the positive control.
# [2] = system: B. cinerea; test: Spore germination assay, fungicidal activity against B. cinerea; assay type: cell-based, Botrytis cinerea; conditions: in vitro, n = 3
# Experimental: as §1, §2
# [3] = Colletotrichum orbiculare, Table 1, from IC50 in μM, read-out: pIC50, C. lagenarium (converted)
# [4] = Colletotrichum orbiculare, in vitro, spore germination, n = 3, read-out: IC50, C. lagenarium
# [5] = Colletotrichum orbiculare, Table 2, fungicidal activity against C. lagenarium used for QSAR, read-out: pIC50 (converted)
# [6] = Colletotrichum orbiculare, Table 4, experimental, C. lagenarium, read-out: Exp. pIC50 (converted)
compound,measurement,setting,value
4-[2-(Cinnamoyloxy)phenyl]-2-methylenebutyrolactone [Compound 5n],"pIC50, C. lagenarium","[1]; Table 1, from IC50 in μM",−1.012
same,pIC50,"[1]; Table 2, fungicidal activity against C. lagenarium used for QSAR",−1.0120
same,Exp. pIC50,"[1]; Table 4, experimental, C. lagenarium",−1.0120
same,IC50,"[1]; in vitro, spore germination, n = 3, read-out: IC50, C. lagenarium",10.3 µM
same,IC50,[2],20.6 µM
"N#Cc1c(Cl)c(Cl)c(Cl)c(C#N)c1Cl [Chlorothalonil, reference compound]",IC50,[1]; [3],4.21 µM
same,IC50,[1]; [4],4.21 µM
same,IC50,[2]; Botrytis cinerea,8.31 µM
"C=C1CC(c2ccc(OC(=O)c3ccccc3Cl)cc2)OC1=O (stereo not shown) [Compound 4a, 4-[4-(2-Chlorobenzoyloxy)phenyl]-2-methylenebutyrolactone]",IC50,[1]; [3],14 µM
same,IC50,[1]; [5],14 µM
same,IC50,[1]; [6],14 µM
same,IC50,[1]; [4],14 µM
same,melting point,,187.2 to 187.9 °C
same,IC50,[2]; Botrytis cinerea,29.8 µM
"C=C1CC(c2ccc(OC(=O)c3ccc(Cl)cc3)cc2)OC1=O (stereo not shown) [Compound 4c, 4-[4-(4-Chlorobenzoyloxy)phenyl]-2-methylenebutyrolactone]",IC50,[1]; [3],12.7 µM
same,IC50,[1]; [5],12.7 µM
same,IC50,[1]; [6],12.7 µM
same,IC50,[1]; [4],12.7 µM
same,melting point,,171.3 to 171.6 °C
same,IC50,[2]; Botrytis cinerea,27.3 µM
"C=C1CC(c2ccc(OC(=O)c3ccccc3Br)cc2)OC1=O (stereo not shown) [Compound 4d, 4-[4-(2-Bromobenzoyloxy)phenyl]-2-methylenebutyrolactone]",IC50,[1]; [3],15.6 µM
same,IC50,[1]; [5],15.6 µM
same,IC50,[1]; [6],15.6 µM
same,IC50,[1]; [4],15.6 µM
same,melting point,,174.5 to 174.9 °C
same,IC50,[2]; Botrytis cinerea,24.1 µM
"C=C1CC(c2ccc(OC(=O)c3ccc(Br)cc3)cc2)OC1=O (stereo not shown) [Compound 4f, 4-[4-(4-Bromobenzoyloxy)phenyl]-2-methylenebutyrolactone]",IC50,[1]; [3],14.4 µM
same,IC50,[1]; [5],14.4 µM
same,IC50,[1]; [6],14.4 µM
same,IC50,[1]; [4],14.4 µM
same,melting point,,175.1 to 175.6 °C
same,IC50,[2]; Botrytis cinerea,23 µM
C=C1CC(c2ccc(OC(=O)c3ccc(C#N)cc3)cc2)OC1=O (stereo not shown) [Compound 4h],IC50,[1]; [3],65.6 µM
same,IC50,[1]; [5],65.6 µM
same,IC50,[1]; [6],65.6 µM
same,IC50,[1]; [4],65.6 µM
same,IC50,[2]; Botrytis cinerea,77 µM
"C=C1CC(c2ccc(OC(=O)c3ccccc3C)cc2)OC1=O (stereo not shown) [Compound 4j, 4-[4-(2-Methylbenzoyloxy)phenyl]-2-methylenebutyrolactone]",IC50,[1]; [3],192 µM
same,IC50,[1]; [5],192 µM
same,IC50,[1]; [6],192 µM
same,IC50,[1]; [4],192 µM
same,melting point,,189.6 to 190.1 °C
same,IC50,[2]; Botrytis cinerea,199 µM
"C=C1CC(c2ccc(OC(=O)c3ccc(C)cc3)cc2)OC1=O (stereo not shown) [Compound 4l, 4-[4-(4-Methylbenzoyloxy)phenyl]-2-methylenebutyrolactone]",IC50,[1]; [3],189 µM
same,IC50,[1]; [5],189 µM
same,IC50,[1]; [6],189 µM
same,IC50,[1]; [4],189 µM
same,melting point,,184.5 to 185.1 °C
same,IC50,[2]; Botrytis cinerea,209 µM
"C=C1CC(c2ccc(OC(=O)c3ccccc3OC)cc2)OC1=O (stereo not shown) [Compound 4m, 4-[4-(2-Methoxylbenzoyloxy)phenyl]-2-methylenebutyrolactone]",IC50,[1]; [3],239 µM
same,IC50,[1]; [5],239 µM
same,IC50,[1]; [6],239 µM
same,IC50,[1]; [4],239 µM
same,melting point,,179.8 to 180.4 °C
same,IC50,[2]; Botrytis cinerea,243 µM
"C=C1CC(c2ccc(OC(=O)c3cccc(OC)c3)cc2)OC1=O (stereo not shown) [Compound 4n, 4-[4-(3-Methoxylbenzoyloxy)phenyl]-2-methylenebutyrolactone]",IC50,[1]; [3],212 µM
same,IC50,[1]; [5],212 µM
same,IC50,[1]; [6],212 µM
same,IC50,[1]; [4],212 µM
same,melting point,,185.7 to 186.2 °C
same,IC50,[2]; Botrytis cinerea,224 µM
"C=C1CC(c2ccc(OC(=O)C=Cc3ccccc3)cc2)OC1=O (stereo not shown) [Compound 4r, 4-[4-(Cinnamoyloxy)phenyl]-2-methylenebutyrolactone]",IC50,[1]; [3],44.5 µM
same,IC50,[1]; [5],44.5 µM
same,IC50,[1]; [6],44.5 µM
same,IC50,[1]; [4],44.5 µM
same,IC50,[2]; Botrytis cinerea,56.3 µM
"C=C1CC(c2ccccc2O)OC1=O (stereo not shown) [Compound 5, 4-(2-Hydroxyphenyl)-2-methylenebutyrolactone]",IC50,[1]; [3],239 µM
same,IC50,[1]; [4],239 µM
same,IC50,[2]; Botrytis cinerea,280 µM
"C=C1CC(c2ccccc2OC(=O)c2ccc(Cl)cc2)OC1=O (stereo not shown) [Compound 5b, 4-[2-(4-Chlorobenzoyloxy)phenyl]-2-methylenebutyrolactone]",IC50,[1]; [3],17.7 µM
same,IC50,[1]; [5],17.7 µM
same,IC50,[1]; [6],17.7 µM
same,IC50,[1]; [4],17.7 µM
same,melting point,,208.7 to 209.3 °C
same,IC50,[2]; Botrytis cinerea,34.5 µM
"C=C1CC(c2ccccc2OC(=O)c2ccccc2Br)OC1=O (stereo not shown) [Compound 5c, 4-[2-(2-Bromobenzoyloxy)phenyl]-2-methylenebutyrolactone]",IC50,[1]; [3],15.9 µM
same,IC50,[1]; [5],15.9 µM
same,IC50,[1]; [6],15.9 µM
same,IC50,[1]; [4],15.9 µM
same,melting point,,204.6 to 205.1 °C
same,IC50,[2]; Botrytis cinerea,34.6 µM
"C=C1CC(c2ccccc2OC(=O)c2ccc(Br)cc2)OC1=O (stereo not shown) [Compound 5e, 4-[2-(4-Bromobenzoyloxy)phenyl]-2-methylenebutyrolactone]",IC50,[1]; [3],15.3 µM
same,IC50,[1]; [5],15.3 µM
same,IC50,[1]; [6],15.3 µM
same,IC50,[1]; [4],15.3 µM
same,melting point,,184.7 to 185.2 °C
same,IC50,[2]; Botrytis cinerea,36.1 µM
C=C1CC(c2ccccc2OC(=O)c2ccc(C#N)cc2)OC1=O (stereo not shown) [Compound 5f],IC50,[1]; [3],79.1 µM
same,IC50,[1]; [5],79.1 µM
same,IC50,[1]; [6],79.1 µM
same,IC50,[1]; [4],79.1 µM
same,IC50,[2]; Botrytis cinerea,95 µM
"C=C1CC(c2ccccc2OC(=O)c2ccccc2)OC1=O (stereo not shown) [Compound 5g, 4-(2-Benzoyloxyphenyl)-2-methylenebutyrolactone]",IC50,[1]; [3],171 µM
same,IC50,[1]; [5],171 µM
same,IC50,[1]; [6],171 µM
same,IC50,[1]; [4],171 µM
same,melting point,,166.3 to 167 °C
same,IC50,[2]; Botrytis cinerea,194 µM
"C=C1CC(c2ccccc2OC(=O)c2ccccc2C)OC1=O (stereo not shown) [Compound 5h, 4-[2-(2-Methylbenzoyloxy)phenyl]-2-methylenebutyrolactone]",IC50,[1]; [3],216 µM
same,IC50,[1]; [5],216 µM
same,IC50,[1]; [6],216 µM
same,IC50,[1]; [4],216 µM
same,melting point,,172.8 to 173.4 °C
same,IC50,[2]; Botrytis cinerea,229 µM
"C=C1CC(c2ccccc2OCCCC)OC1=O (stereo not shown) [Compound 5o, 4-(2-Butoxyphenyl)-2-methylenebutyrolactone]",IC50,[1]; [3],414 µM
same,IC50,[1]; [5],414 µM
same,IC50,[1]; [6],414 µM
same,IC50,[1]; [4],414 µM
same,IC50,[2]; Botrytis cinerea,457 µM
"C=C1CC(c2ccccc2OC(C)C)OC1=O (stereo not shown) [Compound 5q, 4-(2-Isopropoxylphenyl)-2-methylenebutyrolactone]",IC50,[1]; [3],429 µM
same,IC50,[1]; [5],429 µM
same,IC50,[1]; [6],429 µM
same,IC50,[1]; [4],429 µM
same,IC50,[2]; Botrytis cinerea,446 µM
"C=C1CC(c2cccc(OC(=O)CC)c2)OC1=O (stereo not shown) [Compound 6m, 4-(3-Propionyloxyphenyl)-2-methylenebutyrolactone]",IC50,[1]; [3],173 µM
same,IC50,[1]; [5],173 µM
same,IC50,[1]; [6],173 µM
same,IC50,[1]; [4],173 µM
same,IC50,[2]; Botrytis cinerea,203 µM
"C=C1CC(c2cccc(OCCC)c2)OC1=O (stereo not shown) [Compound 6p, 4-(3-Propoxylphenyl)-2-methylenebutyrolactone]",IC50,[1]; [3],266 µM
same,IC50,[1]; [5],266 µM
same,IC50,[1]; [6],266 µM
same,IC50,[1]; [4],266 µM
same,IC50,[2]; Botrytis cinerea,298 µM
